Literature values, collected in US6551555B2, “Apparatus with a chemical indicator for indicating exposure to an oxidative sterilant or disinfectant” (Ethicon, Inc., priority 1997, dated 2003).

Details: Sigma-Aldrich catalog number 229288

Compound: CN(C)c1ccc(C(=C2C=CC(=[N+](C)C)C=C2)c2ccc(N(C)C)cc2)cc1 [crystal violet]
- toxicity hazards: toxic and may cause cancer, heritable genetic damage and irritate the eyes, respiratory system and skin
